Values of other authors as cited in patent publication US7341711B2, “Porphyrin compounds and their use in high-field MRI” (Guerbet, priority 2004, dated 2008).
Where “and” joins values, the source holds several entries; their conditions need not be identical. Equal entries are not always repeated. Where two headings read alike, the source gives them in different places.

## O=S(=O)([O-])c1ccc(-c2c3nc(c(-c4ccc(S(=O)(=O)[O-])cc4)c4ccc([n-]4)c(-c4ccc(S(=O)(=O)[O-])cc4)c4ccc([n-]4)c(-c4ccc(S(=O)(=O)[O-])cc4)c4nc2C=C4)C=C3)cc1.[Mn+3] [MnTPPS4]
At 1.5 T
  relaxivity: 17 mmol⁻¹ s⁻¹
Field not stated
  relaxivity: ~10 mmol⁻¹ s⁻¹
In blood plasma at 0.25 T
  relaxivity: 10.7 mmol⁻¹ s⁻¹ and 12.2 mmol⁻¹ s⁻¹
